The record followed here is patent publication US20230391871A1, “MONOAMINE OXIDASE BLOCKADE THERAPY FOR TREATING CANCER THROUGH REGULATING TUMOR ASSOCIATED MACROPHAGES (TAMS)” (THE REGENTS OF THE UNIVERSITY OF CALIFORNIA, priority 2020, published 2023).

Where two headings read alike, the source gives them in different places.

The subject of one experiment is B16-OVA melanoma. Put plainly: B16-OVA melanoma syngeneic mouse tumour model. The class given is in vivo. As for the experimental part: (§1) (a) Experimental design. Wildtype BMDMs were stimulated with IL-4/IL-13 with or without MAOI treatment. MAOIs (monoamine oxidase inhibitors) studied were phenelzine (Phe: 20 μM), clorgyline (Clo: 20 μM), moclobemide (Moc: 200 μM), and pirlindole (Pir: 20 μM). NT, no MAOI treatment. (b) FACS analyses of ROS levels in BMDMs. (c) FACS analyses of CD206 expression on BMDMs. (d,e) QPCR analyses of Chi313 (d) and Arg1 (e) mRNA expression in BMDMs. f-j, Studying the TAM-related cancer immunotherapy potential of MAOI treatment in a B16-OVA melanoma syngeneic mouse tumour model (n=7-8). (f) Experimental design. B6 wildtype mice were treated with clodronate liposomes (Clod) to serve as TAM-depleted experimental mice, or treated with vehicle liposomes (Veh) to serve as TAM-intact control mice. Phe, phenelzine treatment: NT, no phenelzine treatment. (g) Tumour growth. (h) Tumour volume at day 18. (i) FACS analyses of CD206 expression on TAMs of TAM-intact experimental mice. (j) FACS analyses of intracellular Granzyme B production in tumour-infiltrating CD8^+ T cells of all experimental mice. k-o, Studying the cancer therapy potential of MAOI treatment in combination with anti-PD-1 treatment in the B16-OVA melanoma and MC38 colon cancer syngeneic mouse tumour models (n=5). (k) Experimental design. Tumour-bearing mice were treated with anti-PD-1 antibody (aPD-1) or isotype control (Iso), together with or without phenelzine (Phe) treatment. NT, no Phe treatment. (l) B16-OVA tumour growth. (m) B16-OVA tumour volume at day 18. (n) MC38 tumour growth. (o) MC38 tumour volume at day 27. Representative of 3 experiments. All data are presented as the mean±SEM. ns, not significant, *P<0.05, **P<0.01, and ***P<0.001, by I-way ANOVA (b-e, h, j, m, o) or by Student's t test (i).
Tumour-bearing mice treated with vehicle liposomes (Veh) were included as a control. The experimental design is shown in main FIG. 5F. FACS quantifications of TAMs (gated as CD45.2^+CD11b^+Ly6G^−Ly6C^−/lowF4/80^+ cells of total TIIs) are presented (n=7-8). b-f, Studying B16-OVA and MC38 tumour growth in B6 wildtype mice with or without phenelzine treatment (Phe or NT). (b) Experimental design. (c) B16-OVA tumour growth (n=10). (d) B16-OVA tumour volume at day 18. (e) MC38 tumour growth (n=6). (f) MC38 tumour volume at day 27. g-k, Studying B16-OVA and MC38 tumour growth in NSG mice with or without phenelzine treatment (Phe or NT: n=5). (g) Experimental design. (h) B16-OVA tumour growth. (i) B16-OVA tumour volume at day 18. (j) MC38 tumour growth. (k) MC38 tumour volume at day 21. Representative of 2 (a-f) and 4 (g-k) experiments.
B16-OVA melanoma cells (1×10^6 per animal) or MC38 colon cancer cells (5×10^5 per animal) were subcutaneously (s.c.) injected into experimental mice to form solid tumours. In some experiments, mice received intraperitoneal (i.p.) injection of phenelzine (30 mg/kg/day) to block MAO-A activity. In some experiments, mice received i.p. injection of clodronate liposomes (200 μl/animal, twice per week) to deplete TAMs: mice received i.p. injection of vehicle liposomes ([…], twice per week) were included as controls. In some experiments, mice received i.p. injection of anti-mouse PD-1 antibodies (300 μg/animal, twice per week) to block PD-1: mice received i.p. injection of isotype antibodies were included as controls. During an experiment, tumour growth was monitored twice per week by measuring tumour size using a Fisherbrand™ Traceable™ digital caliper (Thermo Fisher Scientific): tumour volumes were calculated by formula 1/2×L×W^2.

In the next experiment the test system is MC38 colon cancer. As for the experimental part:
as §1, with “Tumour-bearing mice were treated with anti-PD-1 antibody (aPD-1) or isotype control (Iso), together with or without phenelzine (Phe) treatment. NT, no Phe treatment. (l) B16-OVA tumour growth. (m) B16-OVA tumour volume at day 18. (n) MC38 tumour growth. (o) MC38 tumour volume at day 27. Representative of 3 experiments. All data are presented as the mean±SEM. ns, not significant, *P<0.05, **P<0.01, and ***P<0.001, by I-way ANOVA (b-e, h, j, m, o) or by Student's t test (i).” left out
Tumour-bearing mice treated with vehicle liposomes (Veh) were included as a control. […] FACS quantifications of TAMs (gated as CD45.2^+CD11b^+Ly6G^−Ly6C^−/lowF4/80^+ cells of total TIIs) are presented (n=7-8). b-f, Studying B16-OVA and MC38 tumour growth in B6 wildtype mice with or without phenelzine treatment (Phe or NT). […]
B16-OVA melanoma cells (1×10^6 per animal) or MC38 colon cancer cells (5×10^5 per animal) were subcutaneously (s.c.) injected into experimental mice to form solid tumours. […] During an experiment, tumour growth was monitored twice per week by measuring tumour size using a Fisherbrand™ Traceable™ digital caliper (Thermo Fisher Scientific): tumour volumes were calculated by formula 1/2×L×W^2.

The test system of experiment [1] is wildtype BMDMs (bone marrow-derived macrophages). The experiment can be described thus: In vitro WT BMDM IL-4/IL-13-induced polarization culture with MAOI treatment. Particulars: IL-4/IL-13-stimulated WT BMDMs, 24 h. The class given is cell-based, mouse. As for the experimental part:
as §1
To generate BMDMs, BM cells were collected from femurs and tibias of Maoa WT mice and Maoa KO mice, and were cultured in C10 medium containing with 20% of L929-conditional medium in a 10-cm dish (2×10^6 cells per ml: 12 ml per dish) for 6 days. At day 6, the resulting BMDMs were collected and reseeded in a 6-well plate (1×10^6 cells per ml: 2 ml per well) in C10 medium for 24 hours, in the presence or absence of recombinant murine IL-4 (10 ng/ml) (Peprotech, 200-04) and IL-13 (10 ng/ml) (Peprotech, 200-13) to induce BMDM immunosuppressive polarization.
In some experiments, MAOIs were added to the Maoa WT BMDM polarization culture 30 minutes prior to adding recombinant murine IL-4 and IL-13, to block MAO-A activity during BMDM polarization. MAOIs studied were phenelzine (Phe, 20 μM) (Sigma-Aldrich), clorgyline (Clo, 20 μM) (Sigma-Aldrich), moclobemide (Moc, 200 μM) (Sigma-Aldrich), and pirlindole (Pir, 20 μM) (R&D Systems). At 24 hours after IL-4/IL-13 stimulation, BMDMs were collected for analysis.
Cells were stained with surface marker antibodies, washed with PBS, then resuspended in pre-warmed PBS (1×10^6 cells/ml/tube) containing 1 μM CM-H2DCFDA (Thermo Fisher Scientific, C6827). After 15 minutes incubation at room temperature, cells were immediately washed with cold PBS followed by flow cytometry analysis. ROS levels were measured by oxidation of the CM-H2DCFDA probes that can be read out as the fluorescence intensity at the FITC/488 channel of a flow cytometer. Single cell RNA sequencing (scRNAseq) scRNASeq was used to analyze the gene expression profiles of TIIs. B16-OVA tumours were harvested from Maoa WT and Maoa KO mice to prepare TII suspensions (10 tumours were combined for each group). TII suspensions were then sorted using a FACSAria II flow cytometer to purify immune cells (gated as DAPI-CD45.2^+ cells). Sorted TIIs were immediately delivered to the Technology Center for Genomics & Bioinformatics (TCGB) facility at UCLA for library construction and sequencing.

The mark [2] stands for this setting: NSG mice, phenelzine vs no treatment.

With `NNCCc1ccccc1` [phenelzine], in the experiment on B16-OVA melanoma (B6 wildtype mice, phenelzine vs no treatment (FIG. 11b-d)), the “progression of pre-established B16-OVA solid tumours” value is “effectively suppressed”. Moreover, the “growth of B16-OVA tumours in immunodeficient NSG mice” value in the experiment on B16-OVA melanoma (setting [2]) is given as “did not suppress”. In the experiment with B16-OVA melanoma (TAMs from phenelzine-treated TAM-intact B16-OVA tumour-bearing mice), the “CD206 expression on TAMs (FACS)” value was “decreased expression”. Further, in the experiment on B16-OVA melanoma (combination study with anti-PD-1 antibody or isotype control (FIG. 5k-m), level comparable to anti-PD-1 alone), the “progression of pre-established B16-OVA solid tumours” value was “significantly suppressed”. In the experiment with B16-OVA melanoma (phenelzine-treated B16-OVA tumour-bearing mice), the “Granzyme B production in tumour-infiltrating CD8+ T cells (FACS)” value was “increased production”. Further, the B16-OVA tumour growth entry in the experiment on B16-OVA melanoma (tumour prevention model, B6 wildtype mice, TAM-intact, phenelzine 30 mg/kg/day i.p.) is recorded as “effectively suppressed”. Moreover, the “B16-OVA tumour growth in TAM-depleted mice” value in the experiment on B16-OVA melanoma (tumour prevention model, B6 wildtype mice, TAMs depleted with clodronate liposomes, phenelzine vs no phenelzine) is on record as “No tumour growth difference”. Moreover, the “progression of pre-established MC38 solid tumours” value in the experiment with MC38 colon cancer (B6 wildtype mice, phenelzine vs no treatment (FIG. 11e,f)) is listed as “effectively suppressed”. For the same compound, the “growth of MC38 tumours in immunodeficient NSG mice” value in the experiment on MC38 colon cancer (setting [2]) is “did not suppress”. Further, in the experiment with MC38 colon cancer (combination study with anti-PD-1 antibody or isotype control (FIG. 5n,o), level comparable to anti-PD-1 alone), the “progression of pre-established MC38 solid tumours” value is recorded as “significantly suppressed”. Besides, in experiment [1] (MAOI 20 μM added 30 min before cytokines), the “ROS levels in BMDMs (FACS)” value is recorded as “efficiently reduced”. In experiment [1] (MAOI 20 μM), the “Arg1 mRNA expression in BMDMs (QPCR)” value is “decreased expression”, the “CD206 expression on BMDMs (FACS)” value is “decreased expression”, the “Chi313 mRNA expression in BMDMs (QPCR)” value is on record as “decreased expression” and the “immunosuppressive polarization of BMDMs” value is on record as “suppressed”.
